Counter-ions that a name gives are not always drawn.
Assays:
DDR1 = molecular target: T1, DDR1 (Homo sapiens, UniProt Q08345); assay: Measurement of DDR1 inhibitory activity (LanthaScreen system, in vitro test); format: binding; conditions: GST-DDR1, Kinase tracer 178
T1 construct: purchased Invitrogen
Description: Biological Experiment Example 1: Measurement of an DDR1 Inhibitory Activity (In Vitro Test)
An DDR1 enzyme inhibitory activity was measured by using LanthaScreen (registered trademark) system (Invitrogen) based on the attached instruction. The reagents used are shown below.
Assay buffer: 5× Kinase buffer A (Invitrogen) was diluted 5-fold with ddH2O.
1× Kinase Buffer A: 50 mmol/L HEPES pH 7.5, 10 mmol/L MgCl2, 1 mmol/L EGTA, 0.01% Brij-35.
2×DDR1 Solution: a solution containing […] GST-DDR1 (Invitrogen) was prepared by using Assay buffer.
2× Tracer/antibody solution: a solution containing 20 nmol/L Kinase tracer 178 (Invitorgen) and […] Eu-Anti-GST Antibody (Invitorogen) was prepared by using Assay buffer. Test compound solution: a solution containing a test compound of 2-fold concentration with respect to the final concentration was prepared by 50-fold diluting a DMSO solution of test compound of each concentration with the Assay buffer.
• 1 Add 5 μL 2×DDR1 Solution to proxiplate (PerkinElmer) • 2 Add 5 μL test compound solution to proxiplate • 3 Incubate for 15 min at RT • 4 Add 5 μL 2× Tracer/Antibody solution to all well Incubate 1 h at RT • 6 Read LANCE Eu on Envision (PerkinElmer) (Ex: 320 nm/Em 665 nm & 615 nm)
In the low control group, 5 μL Assay buffer was added instead of 5 μL 2×DDR1 Solution and the final 1% DMSO solution was added instead of test compound solution.
In the high control group, the final 1% DMSO solution was added instead of test compound solution.
(§1) The inhibition rate (%) in the test compound group was calculated based on the following mathematical formula.
% inhibition=100−100*(assay value of test compound−A)/(B−A) [Math. 1]
A: average value of low control group B: average value of high control group
Values of 50% inhibition rate (IC50 values) of the test compound were calculated from the inhibition curve based on the inhibition rate of the test compounds in each concentration.

[1] = molecular target: T2, DDR1 phosphorylation in T-47D (ATCC, HTB-133) cells (Homo sapiens, UniProt Q08345); assay: Measurement of DDR1 phosphorylation suppression rate by using T-47D cells (p-DDR1 ELISA); format: cell-based; conditions: collagen Type I 10 μg/ml, p-DDR1 (panTyr) ELISA
T2 construct: host or cells: T-47D
T2 sequence (Q08345 19-913): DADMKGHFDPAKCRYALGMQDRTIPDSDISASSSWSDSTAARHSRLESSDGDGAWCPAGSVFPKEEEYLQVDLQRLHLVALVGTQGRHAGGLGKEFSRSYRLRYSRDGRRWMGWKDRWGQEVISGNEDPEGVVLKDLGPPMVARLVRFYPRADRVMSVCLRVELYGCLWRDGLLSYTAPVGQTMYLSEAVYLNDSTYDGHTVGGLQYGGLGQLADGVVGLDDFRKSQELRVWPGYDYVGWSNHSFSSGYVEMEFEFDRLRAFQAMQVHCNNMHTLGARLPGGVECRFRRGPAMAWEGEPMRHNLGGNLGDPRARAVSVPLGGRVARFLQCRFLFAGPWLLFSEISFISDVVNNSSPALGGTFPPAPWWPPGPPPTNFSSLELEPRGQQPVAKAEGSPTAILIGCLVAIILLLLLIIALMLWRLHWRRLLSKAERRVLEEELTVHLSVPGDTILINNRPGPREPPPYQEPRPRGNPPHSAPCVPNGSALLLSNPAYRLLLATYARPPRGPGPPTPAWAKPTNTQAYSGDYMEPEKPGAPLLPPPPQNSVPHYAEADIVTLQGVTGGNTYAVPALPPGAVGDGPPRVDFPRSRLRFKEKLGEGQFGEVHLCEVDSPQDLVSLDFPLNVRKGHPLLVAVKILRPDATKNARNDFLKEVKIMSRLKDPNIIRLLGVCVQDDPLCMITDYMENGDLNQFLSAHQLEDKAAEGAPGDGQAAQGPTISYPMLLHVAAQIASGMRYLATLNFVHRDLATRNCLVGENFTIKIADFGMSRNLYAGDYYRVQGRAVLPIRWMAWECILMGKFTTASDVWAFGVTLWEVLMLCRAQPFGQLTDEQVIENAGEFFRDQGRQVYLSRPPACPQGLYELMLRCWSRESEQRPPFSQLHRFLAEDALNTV
Description: Biological Example 2: Measurement of DDR1 Phosphorylation Suppression Rate by Using T-47D (ATCC, HTB-133) cells
T-47D cells should be in culture for at least 7 days before using in the assay.
Cell culture medium: RPMI 1640 (HyClone) containing 10% Heat-FBS (HyClone) was prepared.
Assay medium: RPMI 1640 containing 0.1% BSA (solarbio) was prepared.
Collagen Type I (rat tail) solution: Assay medium containing 200 μg/mL Collagen I, rat tail (Gibco) was prepared.
Cell lysis buffer: a solution containing IX cell lysis buffer (CST) and 1× protease and phosphatase inhibitor cocktail (Thermofisher) was prepared by using ddH2O.
• 1. Collect cells into tubes and centrifuge at 1200 rpm for 5 min, at room temperature. Re-suspend the cells in cell culture medium pre-warmed to room temperature. • 2. Count cells and suspend at a density of 2×10^5/ml of cell culture medium. Plate the cells at 100 μL per well (Corning 3599 96-well plate, 2×10^4 cells per well final), mixing the cells well between each draw of the pipettor. • 3. Put lid on cell plate and place into the incubator at 37° C., 5% CO2 • 4. Culture cell overnight
• 1. Remove the plate from the incubator • 2. Cell medium is replaced with the 90 μL Assay medium.
• 1. Compound plates are pre-titrated using DMSO (10-fold dilution for 6 points) • 2. Dilute test compound using assay medium; Transfer 1 μL compound to other 96 well plate and then add 49 μL assay medium to each well (50 fold dilution). • 3. Add 5 μL the diluted test compound solution to the appropriate wells by pipettor. Compound final concentration is start from […] and DMSO final concentration is 0.1 • 4. Tap the plates gently to mix in compound. Reseal the plate with a lid and place in the incubator again, for 24 h.
• 1. Diluted collagen Type I in assay medium to the 200 μg/ml concentration • 2. Using the pipettor adds 5 μL of 200 μg/mL collagen Type I solution to the cell plate (compound well and High control well, collagen final conc. is 10 μg/ml). Add assay medium buffer to the control wells (low control well) • 3. Reseal the plate with a lid and place in the incubator. Incubate 24 h for collagen type I
• 1. After incubation, add 100 µL per well Cell lysis buffer. • 2. Incubate 30 min on ice, then freezing to −80° C. to get the fully cell lysates. • 3. Transfer cell lysates to new plate • 4. Centrifuge for 30 min (×4000 rpm) at 4° C. Then transfer the supernatant to a new plate.
p-DDR1 (panTyr) ELISA kit (CST) was used in the study. The measurement was carried out according to the attached instruction.
as §1
% inhibition=100−100*(assay value of test compound−A)/(B−A) [Math. 2]
A: average value of low control group B: average value of high control group Values of 50% inhibition rate (IC50 values) of the test compound were calculated from the inhibition curve based on the inhibition rate of the test compounds in each concentration.

T1 sequence (Q08345 19-913): as above

SMILES	IC50 (DDR1) [nM]	IC50 [1] [nM]
O=C1CN(c2cncc(C(F)(F)F)c2)C(=O)N1[C@H]1CC[C@H](Oc2ncnc3[nH]ccc23)CC1 (stereo in doubt) [Example 3(17), 3-[trans-4-(7H-pyrrolo[2,3-d]pyrimidin-4-yloxy)cyclohexyl]-1-[5-(trifluoromethyl)-3-pyridinyl]-2,4-imidazolidinedione]	5	9
O=C1CN(c2cncc(C3(C(F)(F)F)CCO3)c2)C(=O)N1c1ccc(Oc2cnc3[nH]ncc3c2)cc1 (centres unmarked) [Example 13, 3-[4-(1H-pyrazolo[3,4-b]pyridin-5-yloxy)phenyl]-1-{5-[2-(trifluoromethyl)-2-oxetanyl]-3-pyridinyl}-2,4-imidazolidinedione]	3	3
COc1ccc2c(CN3CCC(N4C(=O)CN(c5cncc(C(F)(F)F)c5)C4=O)CC3)ccnc2c1 [Example 10, 3-{1-[(7-methoxy-4-quinolinyl)methyl]-4-piperidinyl}-1-[5-(trifluoromethyl)-3-pyridinyl]-2,4-imidazolidinedione]	60	–
N#Cc1cccc(N2CC(=O)N(C34CCC(Oc5ncnc6[nH]ccc56)(CC3)C4)C2=O)c1 [Example 42(9), 3-{2,4-dioxo-3-[4-(7H-pyrrolo[2,3-d]pyrimidin-4-yloxy)bicyclo[2.2.1]hept-1-yl]-1-imidazolidinyl}benzonitrile]	–	20
COc1cc2nccc(Cc3ccc(N4C(=O)CN(c5cccc(C(F)(F)F)c5)C4=O)cc3)c2cc1OC [Example 6(1), 3-{4-[(6,7-dimethoxy-4-quinolinyl)methyl]phenyl}-1-[3-(trifluoromethyl)phenyl]-2,4-imidazolidinedione]	5	2
O=C1CN(c2cncc(C(F)(F)F)c2)C(=O)N1[C@H]1CC[C@H](Oc2cnc3[nH]nc(OCCO)c3c2)CC1 [Example 36(7), 3-(trans-4-{[3-(2-hydroxyethoxy)-1H-pyrazolo[3,4-b]pyridin-5-yl]oxy}cyclohexyl)-1-[5-(trifluoromethyl)-3-pyridinyl]-2,4-imidazolidinedione]	–	0.1
O=C1CN(c2cncc(C(F)(F)F)c2)C(=O)N1C12CCC(Oc3ccnc4[nH]ncc34)(CC1)C2 [Example 43, 3-[4-(1H-pyrazolo[3,4-b]pyridin-4-yloxy)bicyclo[2.2.1]hept-1-yl]-1-[5-(trifluoromethyl)-3-pyridinyl]-2,4-imidazolidinedione]	–	6
CC(C)(O)c1cc2c(OC34CCC(N5C(=O)CN(c6cncc(C(F)(F)F)c6)C5=O)(CC3)C4)ncnc2[nH]1 [Example 39, 3-(4-{[6-(2-hydroxy-2-propanyl)-7H-pyrrolo[2,3-d]pyrimidin-4-yl]oxy}bicyclo[2.2.1]hept-1-yl)-1-[5-(trifluoromethyl)-3-pyridinyl]-2,4-imidazolidinedione trifluoroacetate (1:1)]	–	10
N#Cc1cncc(N2CC(=O)N(C34CCC(Oc5ncnc6[nH]ccc56)(CC3)C4)C2=O)c1 [Example 42(7), 5-{2,4-dioxo-3-[4-(7H-pyrrolo[2,3-d]pyrimidin-4-yloxy)bicyclo[2.2.1]hept-1-yl]-1-imidazolidinyl}nicotinonitrile]	–	200
O=C1CN(c2cncc(C(F)(F)F)c2)C(=O)N1C12CCC(Oc3ncnc4[nH]cc(Cl)c34)(CC1)C2 [Example 42(2), 3-{4-[(5-chloro-7H-pyrrolo[2,3-d]pyrimidin-4-yl)oxy]bicyclo[2.2.1]hept-1-yl}-1-[5-(trifluoromethyl)-3-pyridinyl]-2,4-imidazolidinedione]	–	20
Nc1nccc(Nc2ccc(N3C(=O)CN(c4cccc(OC(F)(F)F)c4)C3=O)cc2Br)c1N [Example 2(163), 3-{3-bromo-4-[(2,3-diamino-4-pyridinyl)amino]phenyl}-1-[3-(trifluoromethoxy)phenyl]-2,4-imidazolidinedione]	–	6

Next, values leading:

IC50 (DDR1) [nM]	IC50 [1] [nM]	SMILES
3	1	CCc1cc(N2CCN(c3cccc(C(F)(F)F)c3)C2=O)ccc1Oc1ccnc(N)n1 [Example 4(1), 1-{4-[(2-amino-4-pyrimidinyl)oxy]-3-ethylphenyl}-3-[3-(trifluoromethyl)phenyl]-2-imidazolidinone]
3	3	CC(C)c1cc(N2C(=O)CN(c3cncc(C(F)(F)F)c3)C2=O)ccc1Oc1ccnc2[nH]c(=O)[nH]c12 [Example 2(149), 3-{3-isopropyl-4-[(2-oxo-2,3-dihydro-1H-imidazo[4,5-b]pyridin-7-yl)oxy]phenyl}-1-[5-(trifluoromethyl)-3-pyridinyl]-2,4-imidazolidinedione]
2	0.1	CCc1cc(N2C(=O)CN(c3cncc(C(F)(F)F)c3)C2=O)ccc1Oc1ccnc2[nH]ccc12 [Example 3(176), 3-[3-ethyl-4-(1H-pyrrolo[2,3-b]pyridin-4-yloxy)phenyl]-1-[5-(trifluoromethyl)-3-pyridinyl]-2,4-imidazolidinedione]
200	50	COc1cc2nccc(Oc3ccc(N4C(=O)CN(c5cncc(C(F)(F)F)c5)C4=O)cc3C3CN(C(=O)OC(C)(C)C)C3)c2cc1OC [Example 2(2), 2-methyl-2-propanyl 3-(2-[(6,7-dimethoxy-4-quinolinyl)oxy]-5-{2,5-dioxo-3-[5-(trifluoromethyl)-3-pyridinyl]-1-imidazolidinyl}phenyl)-1-azetidinecarboxylate]
–	70	O=C1CN(c2cncc(C(F)(F)F)c2)C(=O)N1c1ccc(N2CCCc3cnccc32)c(Br)c1 [Example 8, 3-[3-bromo-4-(3,4-dihydro-1,6-naphthyridin-1(2H)-yl)phenyl]-1-[5-(trifluoromethyl)-3-pyridinyl]-2,4-imidazolidinedione]
–	10	CC(c1ccnc2[nH]ccc12)N1CCC(N2C(=O)CN(c3cncc(C(F)(F)F)c3)C2=O)CC1 (centres unmarked) [Example 10(1), 3-{1-[1-(1H-pyrrolo[2,3-b]pyridin-4-yl)ethyl]-4-piperidinyl}-1-[5-(trifluoromethyl)-3-pyridinyl]-2,4-imidazolidinedione]
80	–	C=Cc1cc(N2C(=O)CN(c3cncc(C(F)(F)F)c3)C2=O)ccc1N1CCCc2cnccc21 [Example 8(1), 3-[4-(3,4-dihydro-1,6-naphthyridin-1(2H)-yl)-3-vinylphenyl]-1-[5-(trifluoromethyl)-3-pyridinyl]-2,4-imidazolidinedione]
2	–	CCc1cc(N2C(=O)N(c3cncc(C(F)(F)F)c3)CC2O)ccc1Oc1ccnc2[nH]c(=O)cnc12 (centres unmarked) [Example 5(46), 8-(2-ethyl-4-{5-hydroxy-2-oxo-3-[5-(trifluoromethyl)-3-pyridinyl]-1-imidazolidinyl}phenoxy)pyrido[2,3-b]pyrazin-3(4H)-one]

— patent publication US20220306640A1, “HYDANTOIN DERIVATIVE” (ONO PHARMACEUTICAL CO., LTD., priority 2019, published 2022)
